Laboratory results reported in patent publication US20250312370A1, “SYSTEMS AND METHODS FOR USE OF ADENOSINE TRIPHOSPHATE (ATP) TO RELIEVE SYMPTOMS OF COVID-19 AND RELATED INFECTIONS” (ADENYLATE THERAPEUTICS LLC, priority 2020, published 2025).

Experiments:
[1] = test system: advanced hormone refractory prostate cancer; conditions: oral ATP added to palliative agents such as samarium-153; cited from earlier work
COVID-19 [2] = assay: non-randomized trial of oral ATP supplementation for treatment of COVID-19 at two residential care facilities (facilities 1 and 2); format: in vivo, human
Excerpt: FIG. 3 provides a summary of short-term results of a non-randomized trial of ATP supplementation for treatment of COVID-19 at two different residential care facilities. When the facilities experienced a rapid and insidious onset of COVID-19 in 2020, optional oral ATP nutritional supplementation to COVID-19-positive patients in these two facilities was offered. Patients were given free choice to either accept or reject ATP supplementation. ATP doses ranged from 400-mg capsules four times per day (1600 mg) in the younger patients at facility 1 to three 400-mg capsules three times per day (3600 mg) for the older patients in facility 2. In both facilities, ATP was taken for at least a week after confirmation of SARS-CoV-2 infection. ATP also was offered in powder form to be mixed with food or drink at 450 mg per dose.
From the initial 13 patients diagnosed with COVID-19 in facility 1, six patients with average age 75.0 years chose to start ATP while the remaining seven with average age 74.7 years chose not to take ATP. Because of the visible developing benefit conferred by ATP, all subsequent COVID-19 patients at the facility 1 chose to begin taking ATP at the time of their diagnoses. All six patients who initially chose ATP were still alive.
At facility 2, all of the patients receiving ATP started taking ATP on the same day following confirmation of viral infection. All of the facility 2 patients taking ATP were alive. Because all patients taking ATP were elderly with multiple co-morbidities (including diabetes and heart disease), it would be expected that their death rate should be worse than that of the general population of individuals over 70 years of age.

[3] = prolonged infusion; chronically debilitated patients with metastatic treatment refractory disease (Stage IV cancer); cited from earlier work
COVID-19 [4] = assay: oral ATP supplementation of COVID-19 patients in facility 3; format: in vivo, human; conditions: protocol similar to facilities 1 and 2
Excerpt: Using a protocol similar to those used in facilities 1 and 2, ATP supplementation was begun in facility 3.

[5] = in vivo; cited from earlier work
[6] = high dose oral ATP, cited from earlier work

In the case of `Nc1ncnc2c1ncn2[C@@H]1O[C@H](COP(=O)(O)OP(=O)(O)OP(=O)(O)O)[C@@H](O)[C@H]1O` [ATP, Adenosine Triphosphate], the “prostate biomarker PSA” value [1] is given as “dramatically reduces”, the “survival of COVID-19-positive patients accepting oral ATP” value (COVID-19 [2]; facilities 1 and 2, oral ATP 1600-3600 mg per day for at least a week, 2 months after the initiation of supplemental ATP) is given as “alive and recovering” and the “survival of patients who initially chose ATP” value (COVID-19 [2]; facility 1, six patients, average age 75.0 years, 400-mg capsules four times per day) is given as “still alive”. The “survival of patients taking ATP” value (COVID-19 [2]; facility 2, older patients, three 400-mg capsules three times per day) was “alive”, the safety of administration [3] was “safely administered” and the “survival of COVID-19 patients taking supplemental ATP” value (COVID-19 [4]) was “survived except for one patient”. For the same molecule, the pulmonary artery hypertension [5] was “reverse”, the cancer patient survival ([6]; advanced cancer patients) was “improved” and the athletic performance ([6]; athletes) was “improved”.
